How the values were obtained:
[1] = biological target: Beta-1 adrenergic receptor (Cavia porcellus) (UniProt B0FL73); assay: Intrinsic activity at beta-1 adrenergic receptor in guinea pig right atria assessed as increase in contraction rate of spontaneously beating right atria relative to isoproterenol
[2] = biological target: Beta-1 adrenergic receptor (Cavia porcellus) (UniProt B0FL73)
[3] = biological target: Beta-2 adrenergic receptor (Cavia porcellus) (UniProt Q8K4Z4); settings: Trachea
Description: Agonist activity at beta-2 adrenergic receptor in guinea pig tracheal chain assessed as relaxation of spontaneously contracted tracheal smooth muscle

Cavia porcellus = species on record: Cavia porcellus; assay: Selectivity ratio of ED25 for beta-1 adrenergic receptor in guinea pig right atria to ED50 for beta-2 adrenergic receptor in guinea pig tracheal chain
[4] = biological target: Beta-1 adrenergic receptor (Cavia porcellus) (UniProt B0FL73); assay: Agonist activity at beta-1 adrenergic receptor in guinea pig right atria assessed as increase in contraction rate of spontaneously beating right atria at 1.1 X 10^-5 M relative to control
[5] = biological target: Beta-1 adrenergic receptor (Cavia porcellus) (UniProt B0FL73); assay: Agonist activity at beta-1 adrenergic receptor in guinea pig right atria assessed as increase in contraction rate of spontaneously beating right atria at 6.3 X 10^-5 M relative to control

Sequence of Beta-1 adrenergic receptor (Cavia porcellus) (B0FL73 1-467): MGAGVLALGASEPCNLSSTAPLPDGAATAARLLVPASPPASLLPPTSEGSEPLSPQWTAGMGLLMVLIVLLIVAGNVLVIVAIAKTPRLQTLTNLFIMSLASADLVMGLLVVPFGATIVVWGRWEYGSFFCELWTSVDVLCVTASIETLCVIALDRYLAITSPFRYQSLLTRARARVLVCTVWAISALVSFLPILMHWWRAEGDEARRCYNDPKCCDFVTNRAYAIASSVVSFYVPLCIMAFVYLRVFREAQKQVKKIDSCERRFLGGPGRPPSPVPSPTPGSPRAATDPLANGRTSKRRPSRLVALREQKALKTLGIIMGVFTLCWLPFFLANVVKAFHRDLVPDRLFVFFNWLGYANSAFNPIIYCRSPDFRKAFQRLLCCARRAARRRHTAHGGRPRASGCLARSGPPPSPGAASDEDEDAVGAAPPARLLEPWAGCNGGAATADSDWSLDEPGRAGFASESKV
Sequence of Beta-2 adrenergic receptor (Cavia porcellus) (Q8K4Z4 whole entry, looked up): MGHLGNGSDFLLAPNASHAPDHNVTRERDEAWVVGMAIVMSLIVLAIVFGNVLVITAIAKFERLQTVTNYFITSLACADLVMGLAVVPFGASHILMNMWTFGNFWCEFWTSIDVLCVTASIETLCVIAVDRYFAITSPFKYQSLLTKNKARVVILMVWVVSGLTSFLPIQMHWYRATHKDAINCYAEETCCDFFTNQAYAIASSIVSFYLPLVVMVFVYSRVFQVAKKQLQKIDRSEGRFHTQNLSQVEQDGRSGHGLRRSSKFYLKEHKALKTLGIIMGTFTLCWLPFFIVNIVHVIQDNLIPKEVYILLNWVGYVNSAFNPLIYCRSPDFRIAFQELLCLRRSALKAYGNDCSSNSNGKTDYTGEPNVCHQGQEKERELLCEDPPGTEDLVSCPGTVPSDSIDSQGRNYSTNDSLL

Intrinsic activity [1]	ED25 [2]	ED50 [3]	Selectivity ratio (Cavia porcellus)	Activity [4]	SMILES	Activity [5]
0.5	6.4 ×10⁻⁷ M	1.9 ×10⁻⁸ M	34		CC(C)(C)NCC(O)c1ccc(O)c(NC(N)=O)c1 (stereo not drawn)	
0.7	1300 nM	9.6 ×10⁻⁷ M	1.4		CC(C)(C)NCC(CO)c1ccc(O)c(N)c1 (stereo not drawn)	
0.7	3.1 ×10⁻⁷ M	1.1 ×10⁻⁸ M	28		CC(C)(C)NCC(O)c1ccc(O)c(CO)c1 (stereo not drawn)	
		6 ×10⁻⁷ M		18%	CC(C)(C)NCC(CO)c1ccc(O)c(NS(C)(=O)=O)c1 (stereo not drawn)	
		7.1 nM			CC(C)NCC(O)c1ccc(O)c(O)c1 (stereo not drawn)	
0.7	7.6 ×10⁻⁸ M	2.6 ×10⁻⁸ M	3		CC(C)NCC(O)c1ccc(O)c(NS(C)(=O)=O)c1 (stereo not drawn)	
1	9.6 ×10⁻⁸ M	3.3 ×10⁻⁸ M	2.9		CC(C)(C)NCC(CO)c1ccc(O)c(O)c1 (stereo not drawn)	
0.25	4.7 ×10⁻⁵ M	4600 nM	10		CC(C)(C)NCC(CO)c1ccc(O)c(CO)c1 (stereo not drawn)	
	3 ×10⁻⁷ M	1600 nM			COC(CNC(C)C)c1ccc(O)c(O)c1 (stereo not drawn)	
0.3	9300 nM	5.2 ×10⁻⁷ M	18		CC(C)(C)NCC(CO)c1ccc(O)c(NC(N)=O)c1 (stereo not drawn)	
0.3	9.8 ×10⁻⁵ M	4100 nM	24		CC(C)(C)NCC(CO)c1ccc(O)cc1 (stereo not drawn)	

SMILES	Intrinsic activity [1]	ED25 [2]	ED50 [3]	Selectivity ratio (Cavia porcellus)	Activity [4]	Activity [5]
CC(C)(C)NCC(O)c1ccc(O)c(O)c1 (stereo not drawn)	1	7.1 nM	1.3 nM	5.5		
CC(C)NCC(C)(O)c1ccc(O)c(O)c1 (stereo not drawn)			3400 nM			18%
CC(C)NCC(O)c1ccc(O)cc1 (stereo not drawn)	0.3	7.7 ×10⁻⁸ M	1.1 ×10⁻⁷ M	0.7		
CC(C)(C)NCC(O)c1ccc(O)c(N)c1 (stereo not drawn)				5.2		
